# “Also recorded” adds a separate entry of the source.
# Key:
# [1] = test system: PDE4; assay: Inhibition of PDE4 activity, two-step procedure and Lineweaver-Burk analysis; type: biochemical, guinea pig
# Description: (§1) Activities of PDE1~5 in the homogenate of guinea pig lungs or hearts were measured by a two-step procedure according to the previous method, using cAMP with [^3H]-cAMP or cGMP with [^3H]-cGMP as substrates. […] The reagents and homogenate were mixed on ice, and the reaction was initiated by transferring the mixture to a water bath at 37°C. Following a 30-min incubation, the reaction was stopped by transferring the reaction vessel to a bath of boiling water for 3 min. After cooling on ice, 20 μl of a 1 mg/ml solution of Crotalus atrox snake venom was added to the reaction mixture, and the mixture was incubated at 37°C for 10 min. Unreacted [^3H]-cAMP or [^3H]-cGMP was removed by the addition of 500 μl of a 1-in-1 Tris-HCl (40 mM) buffer suspension of Dowex resin (1 × 8-200) with incubation on ice for 30 min. Each tube was then centrifuged at 3700 g for 2 min, and 150 μl of the supernatant was removed for liquid scintillation counting. […] The total protein in each fraction used was assayed according to a previous method. PDE activities are reported as nmol/mg/min.
# [2] = test system: PDE2; assay: Inhibition of PDE2 activity, two-step procedure; type: biochemical; conditions: homogenate of guinea pig lungs or hearts
# Description: as §1
# [3] = test system: inflammatory cells in bronchoalveolar lavage fluid; assay: Inflammatory cell counts in BALF of sensitized and challenged mice; type: in vivo, BABL/c mice; conditions: 3~30 μmol/kg p.o.
# Description: According to the schedule (Figure 1), ten female BABL/c mice in each group were sensitized by an intraperitoneal (i.p.) injection of 20 μg of OVA emulsified in 2.25 mg of an aluminum hydroxide gel, prepared from aluminum sulfate hexadecahydrate, in a total volume of 100 μl on days 0 and 14. On day 21, these mice were injected with (i.p.) 100 μl of a mixture of 1% OVA and Freund's complete adjuvant (1:1). Mice were challenged via the airway using 1% OVA in saline for 30 min on days 28, 29, and 30 by ultrasonic nebulization. After the last of OVA challenges, AHR was assessed on day 32 (48 h after 1% OVA provocation) in each group. […] For comparison, sham-treated mice were challenged with saline instead of 1% OVA (non-challenged). […] AHR was assessed using two methods: (1) in anesthetized ventilated mice, AHR was assessed as previously described by measuring changes in the airway resistance (RL, cmH2O/ml/sec) and lung dynamic compliance (Cdyn, ml/cmH2O) after challenge with aerosolized methacholine (MCh, 0.78~25 mg/ml) using the FlexiVent system (SCIREQ, Montreal, Quebec, Canada). Anesthetized (urethane 600 mg/kg and chloralose 120 mg/kg, i.p.), tracheostomized (stainless-steel cannula, 18 G) mice were mechanically ventilated (at 150 breaths/min, with a tidal volume of 10 ml/kg, positive end-expiratory pressure of 3 cmH2O). (2) in unrestrained animals by barometric plethysmography using a whole-body plethysmograph (WBP) and analyzed using software of Life Science Suite P3 Analysis Modules (Gould, LDS Test and Measurement LLC, Valley View, OH, USA). Mice were placed into the main chamber of the WBP, and the baseline enhanced pause (Penh) value was determined. […] Twenty-four hours after Penh determination, these mice were anesthetized with pentobarbital (50 mg/kg, i.p.), and the lungs were lavaged via a tracheal tube with PBS (1 × 1.0 ml, 37°C). After lavage, blood was collected from the jugular vein and allowed to sit so that it would coagulate. The collected bronchoalveolar lavage fluid (BALF) and coagulated blood were respectively centrifuged at 630 g for 7 min and at 3700 g for 10 min at 4°C. After centrifugation, the BALF and serum supernatants were stored at -20°C until determination of cytokines, including interleukin (IL)-2, IL-4, IL-5, tumor necrosis factor (TNF)-α, and interferon (IFN)-γ by flow cytometric methods using mouse T helper (Th)1/Th2 cytokine CBA kits, and of total immunoglobulin (Ig)E or IgG2a using ELISA kits (Pharmingen, San Diego, CA, USA) according to the respective recommendations of the manufacturers. OVA-specific IgE was measured as described previously. Wells were coated with 100 μl of OVA (20 μg/ml) instead of the capture antibody. Levels are expressed in arbitrary units, where 1 arbitrary unit equals the optical density of the sample divided by the optical density of unchallenged mouse serum or BALF (standard). The BALF pellet was resuspended in ACK lysing buffer (1.658 g NH4Cl, 0.2 g KHCO3 and 1.44 mg EDTA in 200 ml of water) to lyse the residual erythrocytes in each sample. The number of inflammatory cells was counted using a hemocytometer (Hausser Scientific, Horsham, PA, USA). Cytospun slides were stained and differentiated in a blinded fashion by counting at least 100 cells under light microscopy. All undetectable data (< 1 pg/ml) of cytokines were taken as 0 pg/ml.
# [4] = test system: high-affinity rolipram-binding sites (HARBSs) of guinea pig brain cell membranes; assay: Displacement of 2 nM [3H]-rolipram from high-affinity rolipram-binding sites (PDE4H)
# Description: When the above-mentioned guinea pigs were sacrificed, the whole brains were removed and homogenized with a glass/Teflon homogenizer (Glas-Col, Terre Haute, IN, USA) in 10 volumes of cold medium (pH 6.5) containing 20 mM Bis-Tris, 2 mM benzamidine, 2 mM EDTA, 50 mM sodium chloride, 0.1 mM PMSF, and 1 mM dithiothreitol. At 4°C, the homogenate was centrifuged at 170 g for 5 min to remove connective tissues and blood vessels. The suspended homogenate was then re-centrifuged at 40,000 g for 30 min to separate the cytosolic and particulate portions. The particulate portion was re-suspended in a suspension at a concentration of 400 mg/ml (wet weight/volume), after washing three times with homogenizing buffer. The particulate portion mainly consisted of cell membranes. […] Briefly, the reaction buffer consisted of 50 mM Tris-HCl and 5 mM MgCl2 (pH 7.5). […] After 1 h, the reaction was terminated by moving the reaction vessel into crushed ice. Then the reaction mixture was transferred onto Whatman GF/B glass-fiber filters, which were soaked in a 0.3% polyethyleneimine solution in a mini-funnel.
# [5] = test system: PDE3; assay: Inhibition of PDE3 activity, two-step procedure; type: biochemical; conditions: homogenate of guinea pig lungs or hearts
# Description: as §1
# [6] = test system: PDE5; assay: Inhibition of PDE5 activity, two-step procedure; type: biochemical; conditions: homogenate of guinea pig lungs or hearts
# Description: as §1
compound,measurement,setting,value
"COc1cc(O)c2c(c1)O[C@H](c1ccc(OC)c(OC)c1)CC2=O [HDME, hesperetin-7,3'-O-dimethylether]",mode of PDE4 inhibition,"[1]; Lineweaver-Burk analysis, inhibitor 1~10 μM",competitively inhibited
same,Ki,"[1]; Lineweaver-Burk analysis, inhibitor 1~10 μM, substrate cAMP, read-out: dissociation constant for inhibitory binding (Ki), PDE4",2.1 ± 1.3 µM
same,IC50,[1]; homogenate of guinea pig lungs or hearts,3 ± 0.9 µM
same,IC50,[2],> 100 µM
same,effect on increase in number of eosinophils in BALF,[3],significantly suppressed; also recorded: abolished
same,effect on increase in number of lymphocytes in BALF,[3],significantly suppressed
same,effect on increase in number of macrophages in BALF,[3],significantly suppressed
same,effect on increase in number of neutrophils in BALF,[3],significantly suppressed
same,effect on increase in number of total inflammatory cells in BALF,[3],significantly suppressed
same,EC50,"[4]; 2 nM [3H]-rolipram, 30°C, 1 h, read-out: EC50 (PDE4H) for displacing [3H]-rolipram binding",107 ± 39.5 µM
same,PDE4H/PDE4L ratio (therapeutic ratio),[4]; EC50 of [3H]-rolipram displacement / IC50 of PDE4 inhibition,35.5
same,IC50,[5],24.6 ± 3.5 µM
same,IC50,[6],> 100 µM
